According to US10058550B2, “Methods of treating heart failure” (priority 2015, dated 2018):

Biological target: human APJ receptor (Homo sapiens (Human), UniProt P35414)
Assay: biochemical
Format: biochemical
Conditions: read-out: Activity hAPJ SPA EC50 IP
Method: The human APJ receptor was cloned by polymerase chain reaction and the gene encoding the receptor was subcloned in pFLAG-CMV™-3 expression vector (Sigma, Saint Louis, Mo. USA) in-house at Amgen. A GTPγS binding assay was performed on membranes prepared from CHO cells stably expressing human APJ receptor. The optimum experimental conditions for the concentrations of GDP, MgCl2, and NaCl in the assay buffer were initially determined. The assay was performed in assay buffer [20 mM HEPES, pH 7.5, 5 mM MgCl2, and 0.1% (w/v) BSA with 200 mM NaCl, 3 μM GDP] and membranes expressing human APJ receptor/well along with WGA PS beads. The reaction was initiated by addition of 0.2 nM [^35S]GTPγS (Perkin Elmer Life and Analytical Sciences, Waltham USA) in the absence or presence of various ligands and incubated at RT for 90 min. […] All the results presented are means of several independent experiments and analyzed by non-linear regression methods using commercially available program Prism (GraphPad, San Diego, Calif.) to obtain EC50 detailed in Table 58.

human APJ receptor, sequence (P35414 whole entry): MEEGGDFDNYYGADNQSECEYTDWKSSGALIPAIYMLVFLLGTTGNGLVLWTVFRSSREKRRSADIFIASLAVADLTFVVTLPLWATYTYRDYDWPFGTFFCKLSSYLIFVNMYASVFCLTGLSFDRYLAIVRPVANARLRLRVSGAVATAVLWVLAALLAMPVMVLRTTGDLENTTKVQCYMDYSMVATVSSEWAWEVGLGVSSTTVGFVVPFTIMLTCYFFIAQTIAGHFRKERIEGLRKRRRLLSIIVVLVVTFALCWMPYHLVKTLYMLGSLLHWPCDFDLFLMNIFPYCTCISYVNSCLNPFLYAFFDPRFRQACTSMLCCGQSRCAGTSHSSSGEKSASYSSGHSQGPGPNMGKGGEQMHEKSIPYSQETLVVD

Structure (SMILES) | EC50 [nM]
COc1cccc(-c2nnc(NS(=O)(=O)[C@@H](C)[C@H](OC)c3ncc(C)cn3)n2-c2ccccc2F)n1 (atropisomer, axis not shown; (P)) [Example 76.0, (1R,2S,P)-N-(4-(2-fluorophenyl)-5-(6-methoxy-2-pyridinyl)-4H-1,2,4-triazol-3-yl)-1-methoxy-1-(5-methyl-2-pyrimidinyl)-2-propanesulfonamide and (1R,2S,M)-N-(4-(2-fluorophenyl)-5-(6-methoxy-2-pyridinyl)-4H-1,2,4-triazol-3-yl)-1-methoxy-1-(5-methyl-2-pyrimidinyl)-2-propanesulfonamide] | 3
COc1cccc(-c2nnc(NS(=O)(=O)[C@H](C)Cc3ncc(F)cn3)n2-c2ccccc2OC)n1 (mixture of isomers) [Example 31.0, (2R)-1-(5-fluoropyrimidin-2-yl)-N-(4-(2-methoxyphenyl)-5-(6-methoxypyridin-2-yl)-4H-1,2,4-triazol-3-yl)propane-2-sulfonamide and (2S)-1-(5-fluoropyrimidin-2-yl)-N-(4-(2-methoxyphenyl)-5-(6-methoxypyridin-2-yl)-4H-1,2,4-triazol-3-yl)propane-2-sulfonamide] | 2.4
COc1cccc(-c2nnc(NS(=O)(=O)[C@H](C)Cc3ncc(F)cn3)n2-c2c(C)noc2C)n1 (mixture of isomers) [Example 32.0, (2R)-N-(4-(3,5-dimethylisoxazol-4-yl)-5-(6-methoxypyridin-2-yl)-4H-1,2,4-triazol-3-yl)-1-(5-fluoropyrimidin-2-yl)propane-2-sulfonamide and (2S)-N-(4-(3,5-dimethylisoxazol-4-yl)-5-(6-methoxypyridin-2-yl)-4H-1,2,4-triazol-3-yl)-1-(5-fluoropyrimidin-2-yl)propane-2-sulfonamide] | 140
COc1cccc(-c2nnc(NS(=O)(=O)[C@H](C)C(=O)N3CCCC3)n2-c2c(OC)cccc2OC)n1 (mixture of isomers) [Example 83.0, (2R)-N-(4-(2,6-dimethoxyphenyl)-5-(6-methoxy-2-pyridinyl)-4H-1,2,4-triazol-3-yl)-1-oxo-1-(1-pyrrolidinyl)-2-propanesulfonamide and (2S)-N-(4-(2,6-dimethoxyphenyl)-5-(6-methoxy-2-pyridinyl)-4H-1,2,4-triazol-3-yl)-1-oxo-1-(1-pyrrolidinyl)-2-propanesulfonamide] | 48
COc1cccc(OC)c1-n1c(NS(=O)(=O)[C@@H](C)[C@H](C)c2ncc(F)cn2)nnc1-c1cccnc1 (mixture of isomers) [Example 182.0, (2R,3S)-N-(4-(2,6-dimethoxyphenyl)-5-(3-pyridinyl)-4H-1,2,4-triazol-3-yl)-3-(5-fluoro-2-pyrimidinyl)-2-butanesulfonamide and (2S,3R)-N-(4-(2,6-dimethoxyphenyl)-5-(3-pyridinyl)-4H-1,2,4-triazol-3-yl)-3-(5-fluoro-2-pyrimidinyl)-2-butanesulfonamide] | 1.1
COc1cccc(OC)c1-n1c(NS(=O)(=O)[C@@H](C)Cc2ncc(F)cn2)nnc1-c1ccccn1 (mixture of isomers) [Example 202.0, (2R)-N-(4-(2,6-dimethoxyphenyl)-5-(2-pyridinyl)-4H-1,2,4-triazol-3-yl)-1-(5-fluoro-2-pyrimidinyl)-2-propanesulfonamide and (2S)-N-(4-(2,6-dimethoxyphenyl)-5-(2-pyridinyl)-4H-1,2,4-triazol-3-yl)-1-(5-fluoro-2-pyrimidinyl)-2-propanesulfonamide] | 15.4
COc1cccc(-c2nnc(NS(=O)(=O)C[C@H](O)c3ccc(Cl)cc3)n2-c2c(OC)cccc2OC)n1 (mixture of isomers) [Example 264.0, (R)-2-(4-chlorophenyl)-N-(4-(2,6-dimethoxyphenyl)-5-(6-methoxypyridin-2-yl)-4H-1,2,4-triazol-3-yl)-2-hydroxyethanesulfonamide and (S)-2-(4-chlorophenyl)-N-(4-(2,6-dimethoxyphenyl)-5-(6-methoxypyridin-2-yl)-4H-1,2,4-triazol-3-yl)-2-hydroxyethanesulfonamide] | 0.34
COc1cccc(OC)c1-n1c(NS(=O)(=O)C[C@@H](O)C2CCC2)nnc1-c1cncc(C)c1 (mixture of isomers) [Example 382.0, (R)-2-cyclobutyl-N-(4-(2,6-dimethoxyphenyl)-5-(5-methylpyridin-3-yl)-4H-1,2,4-triazol-3-yl)-2-hydroxyethanesulfonamide and (S)-2-cyclobutyl-N-(4-(2,6-dimethoxyphenyl)-5-(5-methylpyridin-3-yl)-4H-1,2,4-triazol-3-yl)-2-hydroxyethanesulfonamide] | 73
COc1cccc(-c2nnc(NS(=O)(=O)[C@H](C)[C@@H](O)C(C)(C)C)n2-c2c(OC)cccc2OC)n1 (mixture of isomers) [Example 433.0] | 42
COc1cccc(OC)c1-n1c(NS(=O)(=O)[C@@H](C)[C@H](C)c2ncc(F)cn2)nnc1-c1cccc(C)n1 (mixture of isomers) [Example 452.0, (2S,3R)—N-(4-(2,6-dimethoxyphenyl)-5-(6-methyl-2-pyridinyl)-4H-1,2,4-triazol-3-yl)-3-(5-fluoro-2-pyrimidinyl)-2-butanesulfonamide and (2R,3S)—N-(4-(2,6-dimethoxyphenyl)-5-(6-methyl-2-pyridinyl)-4H-1,2,4-triazol-3-yl)-3-(5-fluoro-2-pyrimidinyl)-2-butanesulfonamide] | 1
COc1cccc(OC)c1-n1c(NS(=O)(=O)[C@@H](C)Cc2ncc(F)cn2)nnc1-c1cccc(C)n1 (mixture of isomers) [Example 618.0, (S)-N-(4-(2,6-dimethoxyphenyl)-5-(6-methylpyridin-2-yl)-4H-1,2,4-triazol-3-yl)-1-(5-fluoropyrimidin-2-yl)propane-2-sulfonamide and (R)-N-(4-(2,6-dimethoxyphenyl)-5-(6-methylpyridin-2-yl)-4H-1,2,4-triazol-3-yl)-1-(5-fluoropyrimidin-2-yl)propane-2-sulfonamide] | 5.4
COc1cccc(OC)c1-n1c(NS(=O)(=O)[C@H](C)[C@@H](OC)c2ncnn2C)nnc1-c1cncc(C)c1 (mixture of isomers) [Example 637.0, (1S,2R)-N-(4-(2,6-dimethoxyphenyl)-5-(5-methylpyridin-3-yl)-4H-1,2,4-triazol-3-yl)-1-methoxy-1-(1-methyl-1H-1,2,4-triazol-5-yl)propane-2-sulfonamide and (1R,2S)-N-(4-(2,6-dimethoxyphenyl)-5-(5-methylpyridin-3-yl)-4H-1,2,4-triazol-3-yl)-1-methoxy-1-(1-methyl-1H-1,2,4-triazol-5-yl)propane-2-sulfonamide] | 150
COc1cccc(OC)c1-n1c(NS(=O)(=O)[C@@H](C)[C@H](O)c2ccc(Br)c(C)n2)nnc1-c1cccnc1 (mixture of isomers) [Example 642.0, (1R,2S)-1-(5-bromo-6-methylpyridin-2-yl)-N-(4-(2,6-dimethoxyphenyl)-5-(pyridin-3-yl)-4H-1,2,4-triazol-3-yl)-1-hydroxypropane-2-sulfonamide and (1S,2R)-1-(5-bromo-6-methylpyridin-2-yl)-N-(4-(2,6-dimethoxyphenyl)-5-(pyridin-3-yl)-4H-1,2,4-triazol-3-yl)-1-hydroxypropane-2-sulfonamide] | 0.48
COc1cccc(-c2nnc(NS(=O)(=O)[C@H]3CCCO[C@H]3c3ncc(C)cn3)n2-c2c(OC)cccc2OC)n1 (mixture of isomers) [Example 648.0] | 33
COc1cccc(OC)c1-n1c(NS(=O)(=O)C(C)Cc2ncc(F)cn2)nnc1-c1cncc(Br)c1 (racemic) [Example 146.0, (2R)-N-(5-(5-bromo-3-pyridinyl)-4-(2,6-dimethoxyphenyl)-4H-1,2,4-triazol-3-yl)-1-(5-fluoro-2-pyrimidinyl)-2-propanesulfonamide and (2S)-N-(5-(5-bromo-3-pyridinyl)-4-(2,6-dimethoxyphenyl)-4H-1,2,4-triazol-3-yl)-1-(5-fluoro-2-pyrimidinyl)-2-propanesulfonamide] | 2.1
COc1cccc(OC)c1-n1c(NS(=O)(=O)[C@H](C)[C@@H](C)n2cc(C)cn2)nnc1-c1cncc(C)c1 (racemic) [Example 647.0] | 1.7
COc1cccc(OC)c1-n1c(NS(=O)(=O)[C@H](C)[C@@H](C)c2cnc(C)cn2)nnc1-c1cccnc1 (racemic) [Example 701.0, (2R,3S)-N-(4-(2,6-dimethoxyphenyl)-5-(3-pyridinyl)-4H-1,2,4-triazol-3-yl)-3-(5-methyl-2-pyrazinyl)-2-butanesulfonamide, (2S,3R)-N-(4-(2,6-dimethoxyphenyl)-5-(3-pyridinyl)-4H-1,2,4-triazol-3-yl)-3-(5-methyl-2-pyrazinyl)-2-butanesulfonamide] | 2
COc1cccc(-c2nnc(NS(=O)(=O)[C@@H](C)[C@@H](OC(C)C)c3ncc(C)cn3)n2-c2c(OC)cccc2OC)n1 (single isomer, unassigned) [Example 95.0] | 0.11
CCO[C@@H](c1ncc(C)cn1)[C@@H](C)S(=O)(=O)Nc1nnc(-c2cccnc2)n1-c1c(OC)cccc1OC (single isomer, unassigned) [Example 108.0] | 150
COc1cccc(OC)c1-n1c(NS(=O)(=O)[C@@H](C)Cc2ncc(F)cn2)nnc1-c1cncc(C)c1 (single isomer, unassigned) [Example 208.0] | 1
COc1cccc(OC)c1-n1c(NS(=O)(=O)[C@@H](C)Cc2ncc(F)cn2)nnc1-c1cncc(C)c1 (single isomer, unassigned) [Example 209.0] | 4.9
